Test results reported in ChEMBL document CHEMBL1128760, “CCKB selective receptor ligands: novel 1,3,5-trisubstituted benzazepin-2-ones” (Bioorg Med Chem Lett, 1995).

Target: T1, Cholecystokinin receptor type A (Rattus norvegicus, UniProt P30551)
T1 sequence (P30551 whole entry): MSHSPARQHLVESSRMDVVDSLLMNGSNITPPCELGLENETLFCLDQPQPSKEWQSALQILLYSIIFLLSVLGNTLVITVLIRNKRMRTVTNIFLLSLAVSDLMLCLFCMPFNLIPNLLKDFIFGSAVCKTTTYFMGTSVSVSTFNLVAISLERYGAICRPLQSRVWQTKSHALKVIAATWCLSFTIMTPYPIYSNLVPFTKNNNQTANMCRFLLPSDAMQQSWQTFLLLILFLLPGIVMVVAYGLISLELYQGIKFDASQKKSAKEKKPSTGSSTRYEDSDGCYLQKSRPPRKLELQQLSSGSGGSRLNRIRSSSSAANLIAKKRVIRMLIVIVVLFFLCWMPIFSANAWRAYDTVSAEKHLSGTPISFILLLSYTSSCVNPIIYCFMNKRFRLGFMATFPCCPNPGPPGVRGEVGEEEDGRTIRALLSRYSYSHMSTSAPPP
Test: Inhibitory activity against Cholecystokinin type A receptor in rat pancreas using [125 I ]- CCK-8 as radioligand.

Row | IC50 [nM] | Compound
1 | 121 | Cc1cccc(NC(=O)N[C@@H]2C[C@H](N3CCCCCC3)c3ccccc3N(C)C2=O)c1
2 | 646 | Cc1cccc(NC(=O)N[C@@H]2C[C@@H](N3CCCCCC3)c3ccccc3N(C)C2=O)c1
